Holding throughout (type): ADME
In series [1] the target is T1, Albumin (Bos taurus, UniProt P02769). Briefly: Effect on secondary structure of bovine serum albumin assessed as alpha-helix content at 0.5 uM at pH 7.4 by circular dichroism method (reference value: 63 %). The note with it: cattle, pH 7.4, 0.5 µM. In general terms: CD spectra are sensitive to the conformation of chiral molecules.
The target of series [2] is T1, Albumin. Kind of series: Binding affinity to bovine serum albumin at pH 7.4 by fluorescence spectroscopy. The note with it: cattle, isolated protein.
The target of series [3] is T1, Albumin. Briefly: Effect on secondary structure of bovine serum albumin assessed as beta antiparallel content at 0.5 uM at pH 7.4 by circular dichroism method (reference value: 3 %). As to conditions: cattle, pH 7.4, 0.5 µM.
In series [4] the target is T1, Albumin. Briefly: Effect on secondary structure of bovine serum albumin assessed as beta-sheet content at 0.5 uM at pH 7.4 by circular dichroism method (reference value: 16 %). As to conditions: cattle, pH 7.4, 0.5 µM.
Series [5] addresses T1, Albumin. Briefly: Effect on secondary structure of bovine serum albumin assessed as turn structure content at 0.5 uM at pH 7.4 by circular dichroism method (reference value: 12 %). The note with it: cattle, pH 7.4, 0.5 µM.
Series [6] concerns the target T1, Albumin. Briefly: Effect on secondary structure of bovine serum albumin assessed as random coil content at 0.5 uM at pH 7.4 by circular dichroism method (reference value: 6 %). The note with it: cattle, pH 7.4, 0.5 µM.
In series [7] the target is T1, Albumin. Kind of series: Binding affinity to bovine serum albumin at pH 7.4 by Stern-Volmer plot. The note with it: cattle, isolated protein.
The target of series [8] is T1, Albumin. Briefly: Binding affinity to bovine serum albumin at pH 7.4 by McGhee and von Hippel method. The note with it: cattle, isolated protein.
For series [9], the target named is T1, Albumin. Kind of series: Binding affinity to bovine serum albumin at 1 to 100 uM at pH 7.4 by fluorescence spectroscopy. As to conditions: cattle, isolated protein, pH 7.4, 100 µM.

T1 sequence (P02769 whole entry): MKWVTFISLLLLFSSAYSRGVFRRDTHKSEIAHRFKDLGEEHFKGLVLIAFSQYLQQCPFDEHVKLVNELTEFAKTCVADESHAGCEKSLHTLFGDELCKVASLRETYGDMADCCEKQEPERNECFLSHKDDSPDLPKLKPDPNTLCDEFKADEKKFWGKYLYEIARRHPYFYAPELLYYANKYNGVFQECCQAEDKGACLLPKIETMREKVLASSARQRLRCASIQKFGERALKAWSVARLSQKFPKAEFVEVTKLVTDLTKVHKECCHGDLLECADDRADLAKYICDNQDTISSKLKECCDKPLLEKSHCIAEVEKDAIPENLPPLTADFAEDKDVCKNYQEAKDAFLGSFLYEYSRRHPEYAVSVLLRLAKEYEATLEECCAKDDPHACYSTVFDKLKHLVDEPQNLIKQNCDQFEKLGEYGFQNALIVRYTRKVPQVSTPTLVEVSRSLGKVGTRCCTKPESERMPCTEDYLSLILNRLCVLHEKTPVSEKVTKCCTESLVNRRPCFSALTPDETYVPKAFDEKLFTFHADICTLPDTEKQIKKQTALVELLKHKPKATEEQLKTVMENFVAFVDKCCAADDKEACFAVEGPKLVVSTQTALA

On to `CC/C(=C(\c1ccc(O)cc1)c1ccc(OCCNC)cc1)c1ccccc1` [ENDOXIFEN], for which the Activity at Albumin [1] is 47%; at Albumin [3] it was 3%; at Albumin [4], 14%; at Albumin [5], 21%; at Albumin [6] it was 15%. Moreover, the results for the K at Albumin [2], at Albumin [7] and on Albumin [8] were 8.01 ×10³ /M, 0.8 ×10⁴ /M and 1.1 ×10⁴ /M, respectively.

In the case of `CC/C(=C(\c1ccccc1)c1ccc(OCCN(C)C)cc1)c1ccccc1` [TAMOXIFEN], the Activity at Albumin [1] came to 41%; on Albumin [9], 98%; at Albumin [3], 3%; on Albumin [4] it was 26%; on Albumin [5] it was 20%; at Albumin [6], 10%. Besides, the K was 1.96 ×10⁴ /M on Albumin [2], 1.96 ×10⁴ /M on Albumin [7] and 1.65 ×10⁴ /M at Albumin [8].

Take `CCC(=C(c1ccc(O)cc1)c1ccc(OCCN(C)C)cc1)c1ccccc1`: the Activity at Albumin [1] is listed as 39%; on Albumin [3], 3%; on Albumin [4], 17%; at Albumin [5], 21%; on Albumin [6], 20%. Also, the K on Albumin [2] was found to be 1.8 ×10⁴ /M; on Albumin [7] it was 1.8 ×10⁴ /M; at Albumin [8], 1.5 ×10⁴ /M.

The values are drawn from ChEMBL document CHEMBL1833796, “Locating the binding sites of anticancer tamoxifen and its metabolites 4-hydroxytamoxifen and endoxifen on bovine serum albumin” (Eur J Med Chem, 2011).
